Experimental data from patent US20260085034A1, “N-(BENZHYDRYL)CYCLOALKYLCARBOXAMIDE DERIVATIVES AS INHIBITORS OF GLYCOGEN SYNTHASE 1 (GYS1) AND METHODS OF USE THEREOF” (Maze Therapeutics, Inc., priority 2022, published 2026).

Target: T1, recombinant hGYS1/GN1 protein (Homo sapiens, UniProt P13807)
T1 sequence (P13807 1-737): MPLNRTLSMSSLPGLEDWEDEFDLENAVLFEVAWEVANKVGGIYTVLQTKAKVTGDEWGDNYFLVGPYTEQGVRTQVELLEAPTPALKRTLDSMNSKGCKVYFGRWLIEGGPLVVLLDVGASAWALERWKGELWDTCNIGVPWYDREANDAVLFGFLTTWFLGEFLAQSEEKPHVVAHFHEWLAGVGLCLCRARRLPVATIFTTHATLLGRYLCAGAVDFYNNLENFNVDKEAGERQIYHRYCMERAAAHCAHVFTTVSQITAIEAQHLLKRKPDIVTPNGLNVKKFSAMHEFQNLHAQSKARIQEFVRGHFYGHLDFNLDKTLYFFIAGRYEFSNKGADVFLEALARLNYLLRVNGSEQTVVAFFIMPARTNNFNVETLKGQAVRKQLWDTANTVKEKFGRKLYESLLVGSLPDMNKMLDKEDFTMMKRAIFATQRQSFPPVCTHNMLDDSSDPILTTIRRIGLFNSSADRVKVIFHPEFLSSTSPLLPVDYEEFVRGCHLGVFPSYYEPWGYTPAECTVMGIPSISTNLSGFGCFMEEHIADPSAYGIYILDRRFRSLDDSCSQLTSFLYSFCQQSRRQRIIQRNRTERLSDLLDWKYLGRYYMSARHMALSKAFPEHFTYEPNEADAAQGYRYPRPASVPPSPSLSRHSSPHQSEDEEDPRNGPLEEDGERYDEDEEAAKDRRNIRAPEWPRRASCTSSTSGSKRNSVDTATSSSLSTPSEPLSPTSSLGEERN
T1 sequence (P46976 1-350 partner): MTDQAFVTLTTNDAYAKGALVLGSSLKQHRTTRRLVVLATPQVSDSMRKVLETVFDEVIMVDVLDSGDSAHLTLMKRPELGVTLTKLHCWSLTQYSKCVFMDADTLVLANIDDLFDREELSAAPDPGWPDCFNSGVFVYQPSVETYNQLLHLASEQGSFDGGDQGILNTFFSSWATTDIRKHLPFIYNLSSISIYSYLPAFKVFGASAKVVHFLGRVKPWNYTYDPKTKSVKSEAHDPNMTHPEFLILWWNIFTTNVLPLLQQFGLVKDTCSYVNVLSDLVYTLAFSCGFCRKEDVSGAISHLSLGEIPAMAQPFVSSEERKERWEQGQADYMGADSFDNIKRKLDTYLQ
Assay: GYS1 coupled enzyme assay (PK/LDH)
Assay type: biochemical
Details: geometric mean of at least 2 assay runs; NADH absorbance at 340 nm
Excerpt: The GYS1 coupled enzyme assay is a kinetic biochemical assay that indirectly quantifies the rate of glycogen synthesis by coupling the conversion of GYS1 substrate UDP-glucose into UDP with downstream enzymatic reactions. UDP is released from UDP-glucose as glucose monomers are linked into the growing glycogen strand by GYS1. The coupled assay then proceeds with pyruvate kinase utilizing UDP and phospho(enol)pyruvate (PEP) to form pyruvate. Lactate dehydrogenase then converts pyruvate and NADH into lactate and NAD+. Oxidation of NADH to NAD+ can be measured continuously with a plate reader by quantifying the decrease in NADH absorbance at 340 nm over time.
Compounds that inhibit the hGYS1 enzyme and, subsequently, the downstream conversion of NADH to NAD+, were tested using assay ready plates (black, clear bottom 384 well plates) in a final DMSO reaction volume of 2.5% DMSO. The Assay Buffer contained 50 mM Tris pH 7.5, 2 mM MgCl2, and 100 mM KCl. Fresh stocks of BSA at a final concentration of 0.02% and TCEP at 1 mM were added before splitting buffer into hGYS1 buffer and substrate buffer. To the hGYS1 buffer, rabbit liver glycogen was added at a final concentration of 0.2% glycogen. Glucose-6-Phosphate was added at 1 mM, recombinant hGYS1/GN1 protein was added at 50 nM to the substrate buffer, phosphoenolpyruvate (PEP) was added at 2 mM, UDP-Glucose was added at 0.8 mM, NADH) was added at 0.6 mM, and Pyruvate Kinase/Lactate Dehydrogenase was added at 20 units/mL. The reaction was initiated by mixing hGYS1 buffer and substrate buffer at a 1:1 ratio. Both buffers were plated using a liquid dispensing device with hGYS1 buffer plated first followed by the substrate buffer. Plates were spun briefly to eliminate air bubbles and are immediately read in continuous mode at an absorbance of 340 nm, for 10 time points in one-minute increments, for a total of 10 minutes. The slope from these 10 time points was normalized to the positive and negative control wells. The duplicate % inhibition values are then averaged and fit to a Hill equation for dose response according to the Levenberg-Marquardt algorithm with the Hill equation maximum set to 100 and the minimum set to 0.
The results are shown in Table 3 below, which reports the IC50 of each compound. Unless otherwise specified, IC50 values are reported as the geometric mean of at least 2 assay runs on separate days. Each run represents the average of a technical replicate, where each compound was assayed twice in the same plate. As shown in the table below, the compounds of the present invention are potent inhibitors of human GYS1.

Row | IC50 [µM] | SMILES
1 | 2.22 | NC(=O)Nc1ccccc1[C@H](NC(=O)C1CC1)c1ccc(C2CC2)cc1 (single isomer, unassigned) [compound 17]
2 | 1.22 | CC(C)c1ccc([C@@H](NC(=O)C2CC2)c2ccccc2Nc2ncco2)cc1 (single isomer, unassigned) [compound 31]
3 | 2 | CC(C)c1ccc([C@@H](NC(=O)C2CC2)c2cccc3c2NC(=O)C3)cc1 (single isomer, unassigned) [compound 32]
4 | 1.42 | COc1ccccc1[C@H](NC(=O)C1CC1)c1ccc(C(C)C)cn1 (single isomer, unassigned) [compound 33]
5 | 2.44 | Cc1n[nH]cc1[C@H](NC(=O)C1CC1)c1ccc(C(C)C)cc1 (single isomer, unassigned) [compound 43]
6 | 1.81 | Cc1ccccc1[C@H](NC(=O)C1CC1)c1ccc(C(C)C)cn1 (single isomer, unassigned) [compound 47]
7 | 0.737 | CC(=O)Nc1cccc([C@H](NC(=O)C2CC2)c2ccc(C(C)C)cc2)c1 [compound 6, (R)-N-((3-acetamidophenyl)(4-isopropylphenyl)methyl)cyclopropanecarboxamide]
8 | 1.14 | Cc1ccccc1[C@H](NC(=O)[C@@H]1CCC[C@@H]1C#N)c1ccc(C(C)C)cc1 [compound 7, (1R,2S)-2-cyano-N-((R)-(4-isopropylphenyl)(o-tolyl)methyl)cyclopentane-1-carboxamide]
9 | 0.295 | CC(C)c1ccc([C@@H](NC(=O)C2CC2)c2ccccc2NC2NC(=O)N(C)C2=O)cc1 (stereo partly drawn) [compound 8, N-((1R)-(4-isopropylphenyl)(2-((1-methyl-2,5-dioxoimidazolidin-4-yl)amino)phenyl)methyl)cyclopropanecarboxamide]
10 | 1.64 | CC(C)c1ccc([C@@H](NC(=O)[C@H]2C[C@@H]2F)c2ccccc2NC(=O)C2CCN(C)CC2)cc1 [compound 12, N-(2-((R)-((1R,2S)-2-fluorocyclopropane-1-carboxamido)(4-isopropylphenyl)methyl)phenyl)-1-methylpiperidine-4-carboxamide]
11 | 1.74 | CNC(=O)[C@H]1CCC[C@H]1C(=O)N[C@H](c1ccc(C(C)C)cc1)c1ccccc1C [compound 16, (1R,2S)-N^1-((R)-(4-isopropylphenyl)(o-tolyl)methyl)-N^2-methylcyclopentane-1,2-dicarboxamide]
12 | 2.98 | COC(=O)CCNC(=O)[C@H]1CCC[C@H]1C(=O)N[C@H](c1ccc(C(C)C)cc1)c1ccccc1C [compound 20, methyl 3-((1S,2R)-2-(((R)-(4-isopropylphenyl)(o-tolyl)methyl)carbamoyl)cyclopentane-1-carboxamido)propanoate]
13 | 1.53 | CC(=O)NCC(=O)N[C@H]1CCC[C@H]1C(=O)N[C@@H](c1ccccc1)c1ccc(C(C)C)cc1 [compound 21, (1R,2S)-2-(2-acetamidoacetamido)-N-((S)-(4-isopropylphenyl)(phenyl)methyl)cyclopentane-1-carboxamide]
14 | 1.28 | Cc1ccccc1[C@H](NC(=O)[C@@H]1CCC[C@@H]1C(=O)NC#N)c1ccc(C(C)C)cc1 [compound 22, (1S,2R)-N^1-cyano-N^2-((R)-(4-isopropylphenyl)(o-tolyl)methyl)cyclopentane-1,2-dicarboxamide]
15 | 1.21 | CC(C)c1ccc([C@@H](NC(=O)C2CC2)c2ccccc2NC(=O)C2CN(CC(F)(F)F)C2)cc1 [compound 23, (R)-N-(2-(cyclopropanecarboxamido(4-isopropylphenyl)methyl)phenyl)-1-(2,2,2-trifluoroethyl)azetidine-3-carboxamide]
16 | 1.2 | COCCN1CC(C(=O)Nc2ccccc2[C@H](NC(=O)C2CC2)c2ccc(C(C)C)cc2)C1 [compound 24, (R)-N-(2-(cyclopropanecarboxamido(4-isopropylphenyl)methyl)phenyl)-1-(2-methoxyethyl)azetidine-3-carboxamide]
17 | 1.14 | CC(C)c1ccc([C@@H](NC(=O)C2CC2)c2ccccc2NC(=O)C2CN(CC3CC3)C2)cc1 [compound 25, (R)-N-(2-(cyclopropanecarboxamido(4-isopropylphenyl)methyl)phenyl)-1-(cyclopropylmethyl)azetidine-3-carboxamide]
18 | 2.97 | CC(=O)N[C@@H](CC(N)=O)C(=O)N[C@H]1CCC[C@H]1C(=O)N[C@@H](c1ccccc1)c1ccc(C(C)C)cc1 [compound 28, (S)-2-acetamido-N^1-((1S,2R)-2-(((S)-(4-isopropylphenyl)(phenyl)methyl)carbamoyl)cyclopentyl)succinamide]
19 | 1.39 | Cc1ccccc1[C@H](NC(=O)[C@@H]1CCC[C@@H]1C(N)=O)c1ccc(C(C)C)cc1 [compound 30, (1R,2S)-N^1-((R)-(4-isopropylphenyl)(o-tolyl)methyl)cyclopentane-1,2-dicarboxamide]
20 | 0.778 | CC(C)c1ccc([C@@H](NC(=O)[C@H]2CCC(F)C2)c2ccccc2)cc1 (stereo partly drawn) [compound 34, (1S)-3-fluoro-N-((S)-(4-isopropylphenyl)(phenyl)methyl)cyclopentane-1-carboxamide]
21 | 1.13 | CC(C)c1ccc([C@@H](NC(=O)[C@H]2CCC(O)C2)c2ccccc2)cc1 (stereo partly drawn) [compound 35, (1S)-3-hydroxy-N-((S)-(4-isopropylphenyl)(phenyl)methyl)cyclopentane-1-carboxamide]
22 | 1.92 | CC(C)c1ccc([C@@H](NC(=O)[C@@H]2CCC[C@@H]2NC(N)=O)c2ccccc2)cc1 [compound 38, (1R,2S)-N-((S)-(4-isopropylphenyl)(phenyl)methyl)-2-ureidocyclopentane-1-carboxamide]
23 | 1.33 | O=C(N[C@@H](c1ccccc1)c1ccc(C2CCC2)cc1)C1CC1 [compound 40, (S)-N-((4-cyclobutylphenyl)(phenyl)methyl)cyclopropanecarboxamide]
24 | 2.06 | O=C(N[C@@H](c1ccccc1)c1ccc(C2CC2)cc1)C1CC1 [compound 41, (S)-N-((4-cyclopropylphenyl)(phenyl)methyl)cyclopropanecarboxamide]
25 | 1.48 | CC(=O)N1CC[C@H]1C(=O)Nc1ccccc1[C@H](NC(=O)C1CC1)c1ccc(C(C)C)cc1 [compound 42, (S)-1-acetyl-N-(2-((R)-cyclopropanecarboxamido(4-isopropylphenyl)methyl)phenyl)azetidine-2-carboxamide]
26 | 2.49 | CC(C)c1ccc([C@@H](NC(=O)C2CC2)c2ccccc2)nc1 [compound 45, (S)-N-((5-isopropylpyridin-2-yl)(phenyl)methyl)cyclopropanecarboxamide]
27 | 1.79 | CC(C)c1ccc([C@@H](NC(=O)C2CC2)c2ccccc2NC(=O)[C@@H]2CCN2)cc1 [compound 49, (S)-N-(2-((R)-cyclopropanecarboxamido(4-isopropylphenyl)methyl)phenyl)azetidine-2-carboxamide]
